From PMC12649549, “Sequence Permutation Generated Lysine and Tryptophan-Rich Antimicrobial Peptides with Enhanced Therapeutic Index” (Antibiotics, 2025)
Where two headings read alike, the source gives them in different places.

Legend:
S. aureus ATCC 33591 = tested on: S. aureus ATCC 33591
Method in brief: (§1)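 MICs came from CLSI broth microdilution, with 5 × 10^5 CFU/mL bacteria exposed to peptide at final 0.78–50 µg/mL. Media were MH broth or LYM broth (pH 7.4), the latter also adjusted for salt (NaCl 50–300 mM, MgCl2 0.5–2.5 mM) or acidity (pH 4.5–6.5); triplicate independent experiments.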

S. aureus ATCC 25923 = tested on: S. aureus ATCC 25923
Method in brief: as §1

S. aureus ATCC 6538 = tested on: S. aureus ATCC 6538
Method in brief: as §1

[1] = tested on: A. baumannii 14B00100 (Acinetobacter sp., BCRC number 14B0100)
Method in brief: as §1

[2] = tested on: Escherichia coli (ATCC 25922)
Method in brief: as §1

[3] = tested on: A. baumannii 14B0091 (Acinetobacter sp., BCRC number 14B0091)
Method in brief: as §1

Gram-negative bacteria = assay: Geometric mean MIC and therapeutic index, Gram-negative bacteria; format: cell-based; conditions: Gram-negative bacteria
Method in brief: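 Selectivity index derived from human red blood cell HC10 relative to geometric mean MIC. Inoculum was 5 × 10^5 CFU/mL in Müller-Hinton or modified LYM broth, and each experiment was repeated independently three times.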

[4] = LYM broth, 0 mM NaCl, 16 h, 37 °C
[5] = LYM broth, 50 mM NaCl, 16 h, 37 °C
[6] = LYM broth, 100 mM NaCl, 16 h, 37 °C
[7] = LYM broth, 200 mM (NaCl), 16 h, 37 °C
[8] = LYM broth, 300 mM (NaCl), 16 h, 37 °C
[9] = MH broth, 5 × 10^5 CFU/mL, 16 h, 37 °C, repeated three times

Ac-WRKWLKWLAKKKK-NH2 [Peptide W5K02]
MIC (S. aureus ATCC 33591; [4]): 6.25 µg/mL | MIC (S. aureus ATCC 33591; LYM broth, 0.5 mM MgCl2): 6.25 µg/mL | MIC (S. aureus ATCC 33591; LYM broth, 1.5 mM MgCl2): 6.25 µg/mL | MIC (S. aureus ATCC 33591; LYM broth, 2.5 mM MgCl2): 6.25 µg/mL | MIC (S. aureus ATCC 33591; [5]): 6.25 µg/mL | MIC (S. aureus ATCC 33591; [6]): 12.5 µg/mL | MIC (S. aureus ATCC 33591; [7]): 50 µg/mL | MIC (S. aureus ATCC 33591; [8]): 50 µg/mL | MIC (S. aureus ATCC 33591; LYM broth, pH 4.5): 6.25 µg/mL | MIC (S. aureus ATCC 33591; LYM broth, pH 5.5): 6.25 µg/mL | MIC (S. aureus ATCC 33591; LYM broth, pH 6.5): 6.25 µg/mL | MIC (S. aureus ATCC 33591; [9]): 25 µg/mL | MIC (S. aureus ATCC 25923; [4]): 6.25 µg/mL | MIC (S. aureus ATCC 25923; LYM broth, 0.5 mM MgCl2): 6.25 µg/mL | MIC (S. aureus ATCC 25923; LYM broth, 1.5 mM MgCl2): 6.25 µg/mL | MIC (S. aureus ATCC 25923; LYM broth, 2.5 mM MgCl2): 6.25 µg/mL | MIC (S. aureus ATCC 25923; [5]): 6.25 µg/mL | MIC (S. aureus ATCC 25923; [6]): 12.5 µg/mL | MIC (S. aureus ATCC 25923; [7]): 50 µg/mL | MIC (S. aureus ATCC 25923; [8]): >50 µg/mL | MIC (S. aureus ATCC 25923; LYM broth, pH 4.5): 3.13 µg/mL | MIC (S. aureus ATCC 25923; LYM broth, pH 5.5): 3.13 µg/mL | MIC (S. aureus ATCC 25923; LYM broth, pH 6.5): 3.13 µg/mL | MIC (S. aureus ATCC 25923; [9]): 25 µg/mL | MIC (S. aureus ATCC 6538; [4]): 6.25 µg/mL | MIC (S. aureus ATCC 6538; LYM broth, 0.5 mM MgCl2): 3.13 µg/mL | MIC (S. aureus ATCC 6538; LYM broth, 1.5 mM MgCl2): 3.13 µg/mL | MIC (S. aureus ATCC 6538; LYM broth, 2.5 mM MgCl2): 6.25 µg/mL | MIC (S. aureus ATCC 6538; [5]): 6.25 µg/mL | MIC (S. aureus ATCC 6538; [6]): 12.5 µg/mL | MIC (S. aureus ATCC 6538; [7]): 25 µg/mL | MIC (S. aureus ATCC 6538; [8]): 50 µg/mL | MIC (S. aureus ATCC 6538; LYM broth, pH 4.5): 6.25 µg/mL | MIC (S. aureus ATCC 6538; LYM broth, pH 5.5): 3.13 µg/mL | MIC (S. aureus ATCC 6538; LYM broth, pH 6.5): 3.13 µg/mL | MIC (S. aureus ATCC 6538; [9]): 12.5 µg/mL | MIC [1, 4]: 1.56 µg/mL | MIC ([1]; LYM broth, 0.5 mM MgCl2): 1.56 µg/mL | MIC ([1]; LYM broth, 1.5 mM MgCl2): 1.56 µg/mL | MIC ([1]; LYM broth, 2.5 mM MgCl2): 3.13 µg/mL | MIC [1, 5]: 1.56 µg/mL | MIC [1, 6]: 1.56 µg/mL | MIC [1, 7]: 3.13 µg/mL | MIC [1, 8]: 6.25 µg/mL | MIC ([1]; LYM broth, pH 4.5): 1.56 µg/mL | MIC ([1]; LYM broth, pH 5.5): 1.56 µg/mL | MIC ([1]; LYM broth, pH 6.5): 1.56 µg/mL | MIC [1, 9]: 6.25 µg/mL | MIC [2, 4]: 6.25 µg/mL | MIC ([2]; LYM broth, 0.5 mM MgCl2): 6.25 µg/mL | MIC ([2]; LYM broth, 1.5 mM MgCl2): 12.5 µg/mL | MIC ([2]; LYM broth, 2.5 mM MgCl2): 12.5 µg/mL | MIC [2, 5]: 12.5 µg/mL | MIC [2, 6]: 25 µg/mL | MIC [2, 7]: >50 µg/mL | MIC [2, 8]: >50 µg/mL | MIC ([2]; LYM broth, pH 4.5): 3.13 µg/mL | MIC ([2]; LYM broth, pH 5.5): 3.13 µg/mL | MIC ([2]; LYM broth, pH 6.5): 3.13 µg/mL | MIC [2, 9]: 12.5 µg/mL | MIC [3, 4]: 1.56 µg/mL | MIC ([3]; LYM broth, 0.5 mM MgCl2): 1.56 µg/mL | MIC ([3]; LYM broth, 1.5 mM MgCl2): 1.56 µg/mL | MIC ([3]; LYM broth, 2.5 mM MgCl2): 1.56 µg/mL | MIC [3, 5]: 1.56 µg/mL | MIC [3, 6]: 1.56 µg/mL | MIC [3, 7]: 3.13 µg/mL | MIC [3, 8]: 6.25 µg/mL | MIC ([3]; LYM broth, pH 4.5): 1.56 µg/mL | MIC ([3]; LYM broth, pH 5.5): 1.56 µg/mL | MIC ([3]; LYM broth, pH 6.5): 1.56 µg/mL | MIC [3, 9]: 3.13 µg/mL | GM G− (geometric mean of the MIC values) (Gram-negative bacteria; MH broth, MIC >50 µg/mL counted as 100 µg/mL): 7.2 µg/mL | Therapeutic Index (TI) G− (Gram-negative bacteria; HC10/GM): 2.3
